Where only a bound is given, the exact number is not on record here.

Take `C=CCCCCCCOc1ccc(C(=O)O)c(O)c1` [Compound 1-10, 2-Hydroxy-4-oct-7-enyloxy-benzoic acid]: the melting point was in the range of 102 to 111 °C.

With `O=C(O)c1ccc(OCc2ccc(-c3ccco3)cc2)cc1O` [Compound 3-3, 4-(4-Furan-2-yl-benzyloxy)-2-hydroxy-benzoic acid], the melting point is 201 to 205 °C (dec.).

`O=C(O)c1ccc(OCc2cccc(-c3ccc4[nH]ccc4c3)c2)cc1O` [Compound 3-34, 2-Hydroxy-4-[3-(1H-indol-5-yl)-benzyloxy]-benzoic acid]: the melting point is 193 to 196 °C (dec.).

`O=C(O)c1ccc(OCc2ccc(F)cc2)cc1O` [Compound 1-18, 4-(4-Fluoro-benzyloxy)-2-hydroxy-benzoic acid] showed a melting point of 196 to 198 °C.

The molecule `O=C(O)c1ccc(NCc2ccc(OC(F)F)cc2)cc1O` [Compound 6-2, 4-(4-Difluoromethoxy-benzylamino)-2-hydroxy-benzoic acid] had a melting point of 161 to 162 °C.

With `O=C(O)c1ccc(OCc2cccc(-c3cc(Cl)cc(Cl)c3)c2)cc1O` [Compound 3-31, 4-(3′,5′-Dichloro-biphenyl-3-ylmethoxy)-2-hydroxy-benzoic acid], the melting point was 194 to 197 °C (dec.).

In turn, `O=C(O)c1ccc(OCc2cccc(Br)c2)cc1O` [Compound 1-23, 4-(3-Bromo-benzyloxy)-2-hydroxy-benzoic acid] showed a melting point of 191 to 197 °C.

Take `O=C(O)c1ccc(OCc2cccc(-c3ccc(Cl)c(Cl)c3)c2)cc1O` [Compound 3-30, 4-(3′,4′-Dichloro-biphenyl-3-ylmethoxy)-2-hydroxy-benzoic acid]: the melting point was 211 to 215 °C (dec.).

`O=C(Oc1ccc(C(=O)O)c(O)c1)c1ccc(-c2ccccc2)cc1` [Compound 5-1, 4-(4-Phenyl-benzoyloxy)-2-hydroxy benzoic acid]: the melting point was more than 275 °C.

In turn, `CC(=O)Nc1ccc(CNc2ccc(C(=O)O)c(O)c2)cc1` [Compound 6-3, 4-(4-Acetylamino-benzylamino)-2-hydroxy-benzoic acid] returned a melting point of 154 °C.

For the molecule `O=C(O)c1ccc(NCc2ccc(F)cc2)cc1O` [Compound 6-4, 4-(4-Fluoro-benzylamino)-2-hydroxy-benzoic acid], the melting point was 175 °C (dec.).

`COc1cc(NC(=O)c2ccc(-c3ccccc3)cc2)ccc1C(=O)O` [Compound 7-1]: the melting point fell in the range of 179 to 181 °C.

As to `CCCCCCCCCc1ccc(C(=O)O)c(O)c1` [Compound 11-1, 4-Nonyl salicylic acid], the melting point fell in the range of 94 to 97 °C.

As to `O=C(O)c1ccc(OCc2cccc(-c3ccc4c(c3)OCCO4)c2)cc1O` [Compound 3-36, 4-[3-(2,3-Dihydro-benzo[1,4]dioxin-6-yl)-benzyloxy]-2-hydroxy-benzoic acid], the melting point was 170 to 175 °C (dec.).

Take `O=C(O)c1ccc(OCCCCCCO)cc1O` [Compound 1-8, 2-Hydroxy-4-(6-hydroxyhexyloxy) benzoic acid]: the melting point amounted to 139 °C.

`O=C(O)c1ccc(OCc2ccc(-c3ccoc3)cc2)cc1O` [Compound 3-4, 4-(4-Furan-3-yl-benzyloxy)-2-hydroxy-benzoic acid]: the melting point was 202 to 206 °C (dec.).

For `O=C(O)c1ccc(Oc2ccc(-c3ccccc3)cc2[N+](=O)[O-])cc1O` [Compound 8-4, 2-Hydroxy-4-(3-nitro-biphenyl-4-yloxy)-benzoic acid], the melting point is > 200 °C (dec.).

`O=C(O)c1ccc(OCC(O)CO)cc1O` (stereo not shown) [Compound 2-1, 4-(2,3-Dihydroxypropoxy)-2-hydroxy-benzoic acid] had a melting point of 151 to 153 °C.

Consider `CC(=O)c1ccc(-c2ccc(COc3ccc(C(=O)O)c(O)c3)cc2)s1` [Compound 3-13, 4-[4-(5-Acetyl-thiophen-2-yl)-benzyloxy]-2-hydroxy-benzoic acid], for which the melting point is 244 to 248 °C (dec.).

What is called melting point is the temperature, or range, at which the solid turns liquid.

(Values after patent publication US7741352B2, “KCNQ channel modulating compounds and their pharmaceutical use” (Neurosearch A/S, priority 2003, dated 2010).)
